Reference: patent US11718589B2, “Compositions and methods of modulating short-chain dehydrogenase” (CASE WESTERN RESERVE UNIVERSITY, priority 2017, dated 2023)

These molecules were tested against recombinant 15-PGDH (Homo sapiens (Human), UniProt P15428) (assay: Enzyme inhibition of recombinant 15-PGDH, in vitro assay). Details: recombinant human 15-PGDH; read-out: Enzyme inhibition (IC50).
Type: biochemical

Sequence of recombinant 15-PGDH (P15428 whole entry): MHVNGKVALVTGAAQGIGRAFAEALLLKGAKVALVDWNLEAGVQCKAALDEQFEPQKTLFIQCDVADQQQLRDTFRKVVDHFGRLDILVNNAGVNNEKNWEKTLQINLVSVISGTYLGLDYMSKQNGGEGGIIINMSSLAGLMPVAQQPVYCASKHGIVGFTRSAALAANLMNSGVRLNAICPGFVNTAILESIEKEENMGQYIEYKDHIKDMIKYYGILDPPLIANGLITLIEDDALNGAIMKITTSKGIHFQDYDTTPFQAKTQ

IC50 | SMILES
24 nM | COc1ccc(-c2cc(C(F)(F)F)n3nc(C(=O)N4CCCCC4)cc3n2)cc1 [1a]
20 to 100 nM | COc1ccc(-c2cc(-c3ccnc(F)c3)n3nc(C(=O)N4CCCCC4)cc3n2)cc1 [30a]
> 500 nM | COc1ccc(-c2cc(-c3ccc(F)nc3)n3nc(C(=O)N4CCCCC4)cc3n2)cc1 [27a]
> 2500 nM | O=C(NCc1ccccc1)c1ccc2nc(-c3ccccc3)c(-c3ccccc3)nc2c1 [15b]
20 to 100 nM | COc1ccc(-c2cc(C(F)(F)F)n3nc(C(=O)N4CCCC(CF)C4)cc3n2)cc1 (centres unmarked) [58a]
100 to 500 nM | COc1ccc(-c2cc(-c3cncnc3)n3nc(C(=O)N4CCCCC4)cc3n2)cc1 [28a]
20 nM | O=C(c1ccc2nc(-c3ccccc3)c(-c3ccncc3)nc2c1)N1CCCCC1 [34b]
500 to 2500 nM | COc1ccc(-c2cc(C(F)(F)F)n3nc(C(=O)N4CCCC(=O)C4)cc3n2)cc1 [62a]
4 to 20 nM | Nc1ccc(-c2cnc3ccc(C(=O)N4CCCCC4)cc3n2)cc1 [63b]
> 2500 nM | CCCC[S+]([O-])c1nc2nc(-c3ccc(OC)cc3)cc(-c3ccccc3)n2n1 (centres unmarked) [55a]
20 nM | O=C(c1ccc2nc(-c3ccccc3)c(-c3cccnc3)nc2c1)N1CCCCC1 [33b]
500 to 2500 nM | CCOc1ccc(-c2cc(C(F)(F)F)n3nc(C(=O)N4CCCCC4)cc3n2)cc1 [69a]
> 2500 nM | COC(=O)CNC(=O)c1ccc2nc(-c3ccccc3)c(-c3ccccc3)nc2c1 [16b]
20 to 100 nM | O=C(c1ccc2nc(-c3ccccc3)c(-c3ccc(F)nc3)nc2c1)N1CCCCC1 [35b]
20 to 100 nM | COc1ccc(-c2cc(C(F)(F)F)n3nc(C(=O)N4CCCC(C(F)F)C4)cc3n2)cc1 (centres unmarked) [66a]
18.9 nM | COc1ccc(-c2cc(C(F)(F)F)n3nc(C(=O)N4CCCCCC4)cc3n2)cc1 [11a]
20 to 100 nM | COc1ccc(-c2cc(-c3cccn3C)n3nc(C(=O)N4CCCCC4)cc3n2)cc1 [71a]
4 nM | CNC(=O)c1ccc(-c2cnc3ccc(C(=O)N4CCCCC4)cc3n2)cc1 [80b]
< 4 nM | Nc1nc2ccc(-c3cnc4ccc(C(=O)N5CCCCC5)cc4n3)cc2s1 [95b]
4 to 20 nM | O=C(c1ccc2ncc(-c3ccc(F)cc3)nc2c1)N1CCCCC1 [42b]
20 to 100 nM | CCCC[S+]([O-])c1cc2nc(-c3ccc(OC)cc3)cc(-c3c(C)nn(C)c3C)n2n1 (centres unmarked) [74a]
20 to 100 nM | CNc1cc(-c2ccc(OC)cc2)nc2cc(C(=O)N3CCCCC3)nn12 [31a]
30.7 nM | O=C(c1cc2nc(-c3ccc(F)cc3)cc(C(F)(F)F)n2n1)N1CCCCC1 [36a]
4 to 20 nM | CCCC[S+]([O-])c1cc2nc(-c3ccc(OC)cc3)cc(-c3ccnn3C)n2n1 (centres unmarked) [72a]

Each molecule was assayed on PGE2 in A549 cell culture (assay: Induction of PGE2 in A549 cell culture). Details: 0.1 μM compound, A549 cells.
Type: cell-based
Description: This Example provides data on two groups (Table 1 and Table 2) of structural analogues of identified 15-PGDH inhibitors. Data provided is the IC50 of each compound for inhibiting enzymatic activity of recombinant 15-PGDH in an in vitro assay. Recombinant 15-PGDH is human unless otherwise specified. Additionally, the example provides data for selected compounds on induction of PGE2 in A549 cell culture administered 2.5 μM or 0.1 μM of the selected compound.

SMILES | induction of PGE2 in A549 cell culture at 0.1 μM (fold)
CCCC[S+]([O-])c1cc2nc(-c3ccc(OC)cc3)cc(C(F)(F)F)n2n1 (centres unmarked) [3a] | 1.45 fold
O=C(c1ccc2nc(-c3ccccc3)c(-c3ccccc3)nc2c1)N1CCCCC1 [1b] | 1.11 fold
CCCC[S+]([O-])c1cc2nc(-c3ccc(OC)cc3)cc(-c3ccccc3)n2n1 (centres unmarked) [5a] | 1.08 fold
COc1ccc(-c2cc(C(F)(F)F)n3nc(C(=O)N4CCCCC4)cc3n2)cc1 [1a] | 1.29 fold

Same assay, conditions: 2.5 μM compound, A549 cells

SMILES | induction of PGE2 in A549 cell culture at 2.5 μM (fold)
CCCC[S+]([O-])c1cc2nc(-c3ccc(OC)cc3)cc(C(F)(F)F)n2n1 (centres unmarked) [3a] | 2.13 fold
O=C(c1ccc2nc(-c3ccccc3)c(-c3ccccc3)nc2c1)N1CCCCC1 [1b] | 1.87 fold
CCCC[S+]([O-])c1cc2nc(-c3ccc(OC)cc3)cc(-c3ccccc3)n2n1 (centres unmarked) [5a] | 1.69 fold
COc1ccc(-c2cc(C(F)(F)F)n3nc(C(=O)N4CCCCC4)cc3n2)cc1 [1a] | 1.89 fold
